Common to all, as to assay type: cell-based
One test concerns NCI-H460 cells. Description: Proliferation assay, NCI-H460. The conditions noted are these: Homo sapiens, NCI-H460, 96 h; 4 days, crystal violet; read-out: Inhibition of NCI-H460 cell proliferation IC50. As for the experimental part: (§1) Cultivated tumour cells (HeLa, human cervical tumour cells, ATCC CCL-2; NCI-H460, human non-small cell lung carcinoma cells, ATCC HTB-177; DU 145, hormone-independent human prostate carcinoma cells, ATCC HTB-81; HeLa-MaTu-ADR, multidrug-resistant human cervical carcinoma cells, EPO-GmbH Berlin; Caco-2, human colorectal carcinoma cells, ATCC HTB-37; B16F10, mouse melanoma cells, ATCC CRL-6475) were plated at a density of 5,000 cells/well (DU145, HeLa-MaTu-ADR), 3,000 cells/well (NCI-H460, HeLa), 1,500 cells/well (Caco-2), or 1,000 cells/well (B16F10) in a 96-well multititer plate in 200 μL of their respective growth medium supplemented 10% fetal calf serum. After 24 hours, the cells of one plate (zero-point plate) were stained with crystal violet (see below), while the medium of the other plates was supplemented with the test substances in various concentrations (0 μM, as well as in the range of 0.0001-10 μM; the final concentration of the solvent dimethyl sulfoxide was adjusted to 0.1%) using a Hewlett-Packard HP D300 Digital Dispenser. The cells were incubated for 4 days in the presence of test substances. Cell proliferation was determined by staining the cells with crystal violet: the cells were fixed by adding 20 μl/measuring point of an 11% glutaric aldehyde solution for 15 minutes at room temperature. After three washing cycles of the fixed cells with water, the plates were dried at room temperature. The cells were stained by adding 100 μl/measuring point of a 0.1% crystal violet solution (pH 3.0). After three washing cycles of the stained cells with water, the plates were dried at room temperature. The dye was dissolved by adding 100 μl/measuring point of a 10% acetic acid solution. The extinction was determined by photometry at a wavelength of 595 nm. The change of cell number, in percent, was calculated by normalization of the measured values to the extinction values of the zero-point plate (=0%) and the extinction of the untreated ([…]) cells (=100%). The IC50 values (inhibitory concentration at 50% of maximal effect) were determined by means of a 4 parameter fit. A2780 human ovarian carcinoma cells (ECACC #93112519) and non-adherent MOLM-13 human acute myeloid leukemia cells (DSMZ ACC 554) were seeded at a density of 3,000 cell/well (A2780) or 5,000 cells/well (MOLM-13) in a 96-well multititer plate in 150 μL of growth medium supplemented 10% fetal calf serum. After 24 hours, cell viability of one plate (zero-point plate) was determined with the Cell Titre-Glo Luminescent Cell Viability Assay (Promega), while the medium of the other plates was supplemented with the test substances in various concentrations (0 μM, as well as in the range of 0.0001-10 μM; the final concentration of the solvent dimethyl sulfoxide was adjusted to 0.1%) using a Hewlett-Packard HP D300 Digital Dispenser. Cell viability was assessed after 72-hour exposure with the Cell Titre-Glo Luminescent Cell Viability Assay (Promega). IC50 values (inhibitory concentration at 50% of maximal effect) were determined by means of a 4 parameter fit on measurement data which were normalized to vehicle (DMSO) treated cells (=100%) and measurement readings taken immediately before compound exposure (=0%).

The test system of a further test is DU145 cells. The experiment in a line: Proliferation assay, DU145. As to conditions: Homo sapiens, DU-145, 96 h; 4 days, crystal violet; read-out: Inhibition of DU145 cell proliferation IC50. Here is the method:
as §1

The next test relates to Caco-2 cells. The experiment in a line: Proliferation assay, Caco-2. As to conditions: Homo sapiens, Caco-2, 96 h; 4 days, crystal violet; read-out: Inhibition of Caco-2 cell proliferation IC50. Here is the method:
as §1

Another test deals with B16F10 cells. Description: Proliferation assay, B16F10. As to conditions: Mus musculus, B16-F10, 96 h; 4 days, crystal violet; read-out: Inhibition of B16F10 cell proliferation IC50. Here is the method: as §1

In the case of `CS(=N)(=O)Cc1cc2cc(c1)OCCCOc1cc(ccc1F)-c1nc(ncc1F)N2` (racemic) [Example 10, (rac)-3,19-difluoro-10-[(S-methylsulfonimidoyl)methyl]-13,17-dioxa-5,7,24-triazatetracyclo[16.3.1.1^2,6.1^8,12]tetracosa-1(22),2(24),3,5,8(23),9,11,18,20-nonaene], the IC50 in the test with NCI-H460 cells amounted to 238 nM; in the test with DU145 cells, 180 nM; in the test on Caco-2 cells it was 159 nM; in the test with B16F10 cells, 209 nM.

On to `CC(C)(C)OC(=O)N=S(C)(=O)Cc1cc2cc(c1)OCCCCOc1cc(ccc1F)-c1nc(ncc1F)N2` (racemic) [Example 3, (rac)-tert-butyl [{[3,20-difluoro-13,18-dioxa-5,7,25-triazatetracyclo[17.3.1.1^2,6.1^8,12]pentacosa-1(23),2(25),3,5,8(24),9,11,19,21-nonaen-10-yl]methyl}(methyl)oxido-λ^6-sulfanylidene]carbamate], for which the IC50 with NCI-H460 cells is 267 nM; with DU145 cells it was 206 nM; in the test with Caco-2 cells it was 163 nM; in the test on B16F10 cells it was 270 nM.

In the case of `CS(=N)(=O)Cc1cc2cc(c1)OCCCCOc1c(F)ccc(c1F)-c1nc(ncc1F)N2` (racemic) [Example 8, (rac)-3,20,23-trifluoro-10-[(S-methylsulfonimidoyl)methyl]-13,18-dioxa-5,7,25-triazatetracyclo[17.3.1.1^2,6.1^8,12]pentacosa-1(23),2(25),3,5,8(24),9,11,19,21-nonaene], the IC50 in the test on NCI-H460 cells is 217 nM; with DU145 cells, 196 nM; in the test on Caco-2 cells, 181 nM; in the test on B16F10 cells, 224 nM.

For the molecule `CS(=N)(=O)Cc1cc2nc(c1)OCCCCOc1cc(ccc1F)-c1cc(ncc1F)N2` (racemic) [Example 2, (rac)-3,20-difluoro-10-[(S-methylsulfonimidoyl)methyl]-13,18-dioxa-5,7,24-triazatetracyclo[17.3.1.1^2,6.1^8,12]pentacosa-1(23),2(25),3,5,8(24),9,11,19,21-nonaene], the IC50 in the test on NCI-H460 cells was determined as 157 nM; in the test on DU145 cells it was 85 nM; with Caco-2 cells it was 96 nM; in the test with B16F10 cells, 110 nM.

For `CS(=N)(=O)Cc1cc2cc(c1)OCCCCCOc1cc(ccc1F)-c1nc(ncc1F)N2` (racemic) [Example 6, (rac)-3,21-difluoro-10-[(S-methylsulfonimidoyl)methyl]-13,19-dioxa-5,7,26-triazatetracyclo[18.3.1.1^2,6.1^8,12]hexacosa-1(24),2(26),3,5,8(25),9,11,20,22-nonaene], the IC50 came out at 277 nM in the test with NCI-H460 cells, 121 nM in the test with DU145 cells, 144 nM in the test on Caco-2 cells and 171 nM with B16F10 cells.

`CC(C)(C)OC(=O)N=S(C)(=O)Cc1cc2cc(c1)OCCCCCOc1cc(ccc1F)-c1nc(ncc1F)N2` (racemic) [Example 5, (rac)-tert-butyl [{[3,21-difluoro-13,19-dioxa-5,7,26-triazatetracyclo[18.3.1.1^2,6.1^8,12]hexacosa-1(24),2(26),3,5,8(25),9,11,20,22-nonaen-10-yl]methyl}(methyl)oxido-λ^6-sulfanylidene]carbamate]: the IC50 with NCI-H460 cells worked out at 479 nM; with DU145 cells, 585 nM; in the test with Caco-2 cells, 658 nM; in the test with B16F10 cells, 993 nM.

As to `CS(=N)(=O)Cc1cc2cc(c1)OCCCCOc1cc(ccc1F)-c1nc(ncc1F)N2` (racemic) [Example 4, (rac)-3,20-difluoro-10-[(S-methylsulfonimidoyl)methyl]-13,18-dioxa-5,7,25-triazatetracyclo[17.3.1.1^2,6.1^8,12]pentacosa-1(23),2(25),3,5,8(24),9,11,19,21-nonaene], the IC50 was found to be 331 nM in the test with NCI-H460 cells, 138 nM in the test on DU145 cells, 177 nM in the test on Caco-2 cells and 176 nM in the test with B16F10 cells.
